According to PubChem BioAssay AID1918941 (Molecular Pharmacology Branch, DTP, NCI, 2023):

Tested on: SW 1271 complex spheroids, viability
Experiment: Anticancer human tumor SW 1271 cell line growth inhibition [LSD1];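 note: spheroids exposed to agents for 7 days before luminescence read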;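 for viability, T/C: 100% = DMSO vehicle control viability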
Conditions: for IC50: curve of first compound; for viability, T/C: stronger effect = lower value
In short: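 Drug combinations with the LSD1 inhibitor iadademstat tested on tumor cells co-cultured as spheroids with endothelial cells and mesenchymal stem cells. Concentrations descended in half-log increments from clinical Cmax or 10 microM.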

[1] = second compound 0.1 µM, first compound 0.000316 µM
[2] = second compound 0.1 µM, first compound 0.001 µM
[3] = second compound 0.1 µM, first compound 0.00316 µM
[4] = second compound 0.1 µM, first compound 0.01 µM
[5] = second compound 0.1 µM, first compound 0.0316 µM
[6] = second compound 0.1 µM, first compound 0.1 µM
[7] = second compound 0.316 µM, first compound 0.000316 µM
[8] = second compound 0.316 µM, first compound 0.001 µM
[9] = second compound 0.316 µM, first compound 0.00316 µM
[10] = second compound 0.316 µM, first compound 0.01 µM
[11] = second compound 0.316 µM, first compound 0.0316 µM
[12] = second compound 0.316 µM, first compound 0.1 µM
[13] = second compound 1 µM, first compound 0.000316 µM
[14] = second compound 1 µM, first compound 0.001 µM
[15] = second compound 1 µM, first compound 0.00316 µM
[16] = second compound 1 µM, first compound 0.01 µM
[17] = second compound 1 µM, first compound 0.0316 µM
[18] = second compound 1 µM, first compound 0.1 µM
[19] = second compound 3.16 µM, first compound 0.000316 µM
[20] = second compound 3.16 µM, first compound 0.001 µM
[21] = second compound 3.16 µM, first compound 0.00316 µM
[22] = second compound 3.16 µM, first compound 0.01 µM
[23] = second compound 3.16 µM, first compound 0.0316 µM
[24] = second compound 3.16 µM, first compound 0.1 µM
[25] = second compound 10 µM, first compound 0.000316 µM
[26] = second compound 10 µM, first compound 0.001 µM
[27] = second compound 10 µM, first compound 0.00316 µM
[28] = second compound 10 µM, first compound 0.01 µM
[29] = second compound 10 µM, first compound 0.0316 µM
[30] = second compound 10 µM, first compound 0.1 µM

Compound | IC50 (second compound 0.1 µM) | IC50 (second compound 0.316 µM) | IC50 (second compound 1 µM) | IC50 (second compound 3.16 µM) | IC50 (second compound 10 µM) | viability, T/C [3] | viability, T/C [4] | viability, T/C [5] | viability, T/C [6] | viability, T/C [9] | viability, T/C [10] | viability, T/C [11] | viability, T/C [12] | viability, T/C [15] | viability, T/C [16] | viability, T/C [17] | viability, T/C [18] | viability, T/C [21] | viability, T/C [22] | viability, T/C [23] | further results
CC(C)CC(NC(=O)C(Cc1ccccc1)NC(=O)c1cnccn1)B(O)O (stereo not given) + NC1CC1c1ccc(-c2cccc(O)c2)cc1 | < 0.316 nM | < 0.316 nM | < 0.316 nM | < 0.316 nM | < 0.316 nM | 0.1% | 0.28% | 0.2% | 0.25% | 0.09% | 1.18% | 0.59% | 0.2% | 0.37% | 4.1% | 0.05% | 0.13% | 0.12% | 4.7% | 0.14% | viability, T/C [1]: 2.9%; viability, T/C [2]: 0.1%; viability, T/C [7]: 3.44%; viability, T/C [8]: 0.11%; viability, T/C [13]: 2.62%; viability, T/C [14]: 0.2%; viability, T/C [19]: 2.05%; viability, T/C [20]: 0.64%; viability, T/C [24]: 0.19%; viability, T/C [25]: 6.62%; viability, T/C [26]: 0.5%; viability, T/C [27]: 0.15%; viability, T/C [28]: 0.72%; viability, T/C [29]: 0.12%; viability, T/C [30]: 0.19%
CC(C)CC(NC(=O)CNC(=O)c1cc(Cl)ccc1Cl)B1OC(=O)CC(CC(=O)O)(C(=O)O)O1 (stereo not given) + NC1CC1c1ccc(-c2cccc(O)c2)cc1 | 4.86 nM | 4.67 nM | 4.38 nM | 3.94 nM | 4.36 nM | 76% | 6.29% | 0.38% | 0.5% | 72.1% | 6.64% | 0.44% | 0.17% | 67.8% | 4.77% | 0.26% | 0.21% | 61% | 3.44% | 3.87% | viability, T/C [1]: 86.8%; viability, T/C [2]: 83.1%; viability, T/C [7]: 83.1%; viability, T/C [8]: 85.3%; viability, T/C [13]: 75.1%; viability, T/C [14]: 76.9%; viability, T/C [19]: 73.1%; viability, T/C [20]: 72.1%; viability, T/C [24]: 0.21%; viability, T/C [25]: 66.1%; viability, T/C [26]: 67.6%; viability, T/C [27]: 70.9%; viability, T/C [28]: 3.06%; viability, T/C [29]: 0.15%; viability, T/C [30]: 0.18%
COc1cc(Nc2ncc3c(n2)-c2ccc(Cl)cc2C(c2c(F)cccc2OC)=NC3)ccc1C(=O)O + NC1CC1c1ccc(-c2cccc(O)c2)cc1 | 79.7 nM | 69 nM | 114 nM | 79 nM | 64.5 nM | 75.8% | 69.2% | 67.3% | 43.5% | 62.6% | 69.7% | 58.2% | 43% | 68.4% | 67.3% | 73.6% | 48.1% | 60.1% | 55.7% | 67.7% | viability, T/C (second compound 0.1 µM, first compound 0.316 µM): 29%; viability, T/C (second compound 0.1 µM, first compound 1 µM): 13.3%; viability, T/C (second compound 0.316 µM, first compound 0.316 µM): 31.4%; viability, T/C (second compound 0.316 µM, first compound 1 µM): 13.1%; viability, T/C (second compound 1 µM, first compound 0.316 µM): 31%; viability, T/C (second compound 1 µM, first compound 1 µM): 11.6%; viability, T/C [24]: 43.4%; viability, T/C (second compound 3.16 µM, first compound 0.316 µM): 28.6%; viability, T/C (second compound 3.16 µM, first compound 1 µM): 13.7%; viability, T/C [27]: 65.6%; viability, T/C [28]: 59.1%; viability, T/C [29]: 61.2%; viability, T/C [30]: 43%; viability, T/C (second compound 10 µM, first compound 0.316 µM): 29.6%; viability, T/C (second compound 10 µM, first compound 1 µM): 17.2%
